Measurements reported in patent publication US6592845B2, “Estrogens for treating ALS” (Parker Hughes Institute, priority 1999, dated 2003).

Tested on: Heterozygous transgenic mice carrying the human SOD-1 (G93A)
Experiment: Murine model of familial ALS (FALS): monitoring for limb paralysis and death, life-table analysis
Type: in vivo
Conditions: 16 mg/kg twice a day, everyday except weekends
Description: (§1) Heterozygous transgenic mice carrying the human SOD-1 (G93A) were obtained from Jackson Laboratory (Bar Harbor, Me., USA). These mice were monitored everyday for limbic paralysis and death. Onset of FALS was defined as the first day upon which limbic paralysis was observed. Life-table analysis was performed using Statview, Abacus Concepts, Inc. (Berkeley, Calif.).
There are currently several transgenic animal models of ALS (Borchelt et al., 1998, Transgenic mouse models of Alzheimer's disease and amyotrophic lateral sclerosis, Brain Pathology, 8: 735-757). The G93A HuSOD1 is a well established animal model of familial ALS which has been described previously in detail (Dal Canto M C, Gurney Me., 1994, The development of central nervous system pathology in a murine transgenic model of human amyotrophic lateral sclerosis. Am J. Pathol 145: 1-9; Gurney et al., 1994, Motor neuron degeneration in mice that express a human Cu,Zn superoxide dismutase mutation, Science 264:1772-1775). Levels of SOD1 activity are elevated to about five times above that of endogenous SOD 1 in these mice. In this model, the mice develop hind limb weakness, a coarse coat, poor grooming, and reduced stride length at about 3 months of age. By five months of age, a majority of the mice are moribund.
as §1, with “USA). The mice were treated either with vehicle or genistein at 16 mg/kg twice a day, everyday, except on weekends. The” for “USA). These”, “for limb” for “for limbic”, “Calif.). […]” for “Calif.).”
The ability of 4-(4′-hydroxylphenyl)-amino-6,7-dimethoxyquinazoline (P131) and 2,4,4′-trihydroxy deoxybenzoin (DDE-17) to protect against neural degeneration in familial ALS was evaluated using the methods described above for Example 2. […]

[1] = male FALS mice, compared with vehicle-treated males

**Q.** Which “disease onset (first day upon which limbic paralysis was observed)” value (female FALS mice, compared with untreated (vehicle) females) does the source give for `O=c1c(-c2ccc(O)cc2)coc2cc(O)cc(O)c12` [Genistein, genistein] here?
**A.** The value was “did not exhibit a delay”.

**Q.** What about the “disease onset (first day upon which limbic paralysis was observed)” value [1] of the same molecule?
**A.** Its value is “delayed”.

**Q.** What about the mortality [1] of the same molecule?
**A.** Its mortality is “delayed”.
